US7473705B2, “Hexafluoroisopropanol substituted ether derivatives” (Hoffmann-LA Roche Inc., priority 2004, dated 2009)

Experiments:
human LXR beta = target: T1, human LXR beta (Homo sapiens, UniProt P55055); assay: Radioligand binding assay (scintillation proximity), LXR beta; settings: GST-LXR beta-LBD on SPA beads, radioligand displacement; read-out: LXRbeta Binding IC50
T1 construct: human LXR beta (aa 155 to 460); made in house; host or cells: E. coli BL21(pLysS)
T1 sequence (P55055 155-460): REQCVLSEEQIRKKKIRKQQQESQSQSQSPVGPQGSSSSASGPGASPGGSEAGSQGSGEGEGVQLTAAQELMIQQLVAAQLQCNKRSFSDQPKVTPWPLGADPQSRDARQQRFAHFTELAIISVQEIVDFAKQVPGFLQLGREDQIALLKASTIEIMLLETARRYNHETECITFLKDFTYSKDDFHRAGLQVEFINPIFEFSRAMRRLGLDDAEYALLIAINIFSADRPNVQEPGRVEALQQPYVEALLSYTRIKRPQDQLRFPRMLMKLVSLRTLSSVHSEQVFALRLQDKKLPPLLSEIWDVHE
Text: (§1) Mammalian expression vectors were constructed to express full-length human LXR alpha and LXR beta. Bacterial expression vectors were constructed to produce glutathione-s-transferase (GST) fused to the ligand binding domains (LBD) of human LXR alpha (aa 164 to 447) and human LXR beta (aa 155 to 460). To accomplish this, the portions of the sequences encoding the LBDs were amplified from full-length clones by PCR and then subcloned into the plasmid vectors. Final clones were verified by DNA sequence analysis (Willy et al., Genes Dev. 1995, 9:1033-45; Song et al., Proc Natl Acad Sci USA. 1994, 91:10809-13).
(§2) Induction, expression, and purification of GST-LBD fusion proteins were performed in E. coli strain BL21(pLysS) cells by standard methods (Ref: Current Protocols in Molecular Biology, Wiley Press, edited by Ausubel et al).
(§3) LXR alpha and LXR beta receptor binding were assayed in buffer consisting of 50 mM HEPES, pH 7.4, 10 mM NaCl, 5 mM MgCl2. For each 96-well reaction, 500 ng of GST-LXR alpha-LBD or 700 ng of GST-LXR beta-LBD fusion proteins were bound to 80 μg or 40 μg SPA beads (Pharmacia Amersham) respectively, in a final volume of 50 μl by shaking. The resulting slurry was incubated for 1 h at RT and centrifuged for 2 min at 1300×g. The supernatant containing unbound protein was removed, and the semi-dry pellet containing the receptor-coated beads was re-suspended in 50 μl of buffer. Radioligand (eg. 100,000 dpm of (N-(2,2,2-trifluoroethyl)-N-[4-(2,2,2-trifluoro-1-hydroxy-1-trifluoromethylethyl)-phenyl]-benzenesulfonamide)) was added, and the reaction incubated at RT for 1 h in the presence of test compounds, and then scintillation proximity counting was performed. All binding assays were performed in 96-well plates and the amount of bound ligand was measured on a Packard TopCount using OptiPlates (Packard). Dose response curves were measured within a range of concentration from 10^−10 M to 10^−4 M.

human LXR alpha = target: T2, human LXR alpha (Homo sapiens, UniProt Q13133); assay: Radioligand binding assay (scintillation proximity), LXR alpha; settings: GST-LXR alpha-LBD on SPA beads, radioligand displacement; read-out: LXRalpha Binding IC50
T2 construct: human LXR alpha (aa 164 to 447); made in house; host or cells: E. coli BL21(pLysS)
T2 sequence (Q13133 164-447): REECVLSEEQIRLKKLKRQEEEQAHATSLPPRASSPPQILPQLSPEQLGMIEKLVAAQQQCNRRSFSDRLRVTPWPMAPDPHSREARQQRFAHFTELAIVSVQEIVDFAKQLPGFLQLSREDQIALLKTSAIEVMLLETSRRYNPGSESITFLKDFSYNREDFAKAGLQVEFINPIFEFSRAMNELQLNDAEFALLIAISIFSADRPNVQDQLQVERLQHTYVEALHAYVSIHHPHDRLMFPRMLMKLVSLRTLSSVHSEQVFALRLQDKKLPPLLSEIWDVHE
Text: as §1, §2, §3

Row | SMILES | IC50 (human LXR beta) [nM] | IC50 (human LXR alpha) [nM]
1 | OC(c1ccc(OCc2ccccc2)c(Cl)c1)(C(F)(F)F)C(F)(F)F [Example 13, 2-(4-Benzyloxy-3-chloro-phenyl)-1,1,1,3,3,3-hexafluoro-propan-2-ol] | 236 | 237
2 | COC(=O)c1ccc(OC(COc2ccc(C(O)(C(F)(F)F)C(F)(F)F)cc2)c2ccccc2)cc1 (racemic) [Example 11, rac 4-{1-Phenyl-2-[4-(2,2,2-trifluoro-1-hydroxy-1-trifluoromethyl-ethyl)-phenoxy]-ethoxy}-benzoic acid methyl ester] | 14 | 93
3 | Cc1oc(-c2cccc(Cl)c2)nc1COc1ccc(C(O)(C(F)(F)F)C(F)(F)F)cc1Cl [Example 57, 2-{3-Chloro-4-[2-(3-chloro-phenyl)-5-methyl-oxazol-4-ylmethoxy]-phenyl}-1,1,1,3,3,3-hexafluoro-propan-2-ol] | 22.7 | 33
